Results: patent publication US4921860A, “Quinuclidyl- and tropanyl-pyridyl ethers as 5-HT3 receptor antagonists” (John Wyeth and Brother, Limited, priority 1987, dated 1990)

What was measured:
[1] = biological target: T1, 5-HT3 receptors (Rattus norvegicus, UniProt P35563); assay: 5-HT3 receptor antagonism in the isolated vagus nerve of the rat (5-HT induced depolarisation); type: cell-based; settings: isolated rat cervical vagus nerve; estimated from 5-HT concentration ratios; read-out: apparent pKB (KB is the antagonist dissociation constant) (converted)
T1 construct: tested for 5-HT3 receptor antagonism in the isolated vagus nerve of the rat; from tissue; host or cells: isolated cervical vagus nerve of the rat
T1 sequence (P35563 24-483): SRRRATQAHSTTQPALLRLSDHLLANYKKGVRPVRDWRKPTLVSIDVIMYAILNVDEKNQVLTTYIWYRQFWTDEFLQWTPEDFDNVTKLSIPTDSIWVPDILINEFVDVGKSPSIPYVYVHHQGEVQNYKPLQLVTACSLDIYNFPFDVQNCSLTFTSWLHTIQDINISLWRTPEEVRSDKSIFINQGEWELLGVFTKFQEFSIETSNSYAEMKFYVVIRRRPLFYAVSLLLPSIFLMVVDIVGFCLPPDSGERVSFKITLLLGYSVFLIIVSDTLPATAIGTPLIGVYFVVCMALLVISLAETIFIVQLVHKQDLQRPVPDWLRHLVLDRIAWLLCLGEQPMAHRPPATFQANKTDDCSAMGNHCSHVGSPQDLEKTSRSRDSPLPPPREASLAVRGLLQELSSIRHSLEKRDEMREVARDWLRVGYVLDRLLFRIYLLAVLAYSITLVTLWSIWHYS
Procedure: The pyridyl ethers are tested for 5-HT3 receptor antagonism in the isolated vagus nerve of the rat by a method based upon that of Ireland S. J. and Tyers M. B. Brit. J. Phamacol., 1987, 90, 229-238. The procedure relies upon the ability of 5-HT to induce depolaraisation of neurones in the cervical vagus nerve by a direct action of 5-HT3 receptors. A concentration response curve to 5-HT induced depolaraisation is obtained and the antagonists are added to the bath containing the isolated nerve before repeating the 5-HT concentration-response curve. Antagonist potency is estimated from the 5-HT concentration ratios and expressed as an apparent pKB value (where KB is the antagonist dissociation constant).

[2] = biological target: T2, 5-HT3 receptors (Oryctolagus cuniculus, UniProt A0A5F9C9J3); assay: 5-HT3 antagonistic activity in the isolated right atrium of the rabbit heart; type: cell-based; settings: 5-HT evoked increase in spontaneous rate, read-out: apparent PKB (converted)
T2 construct: 5-HT3 antagonistic activity in the isolated right atrium of the rabbit heart; from tissue; host or cells: isolated right atrium of the rabbit heart (sympathetic nerve terminals)
T2 sequence (A0A5F9C9J3 1-494): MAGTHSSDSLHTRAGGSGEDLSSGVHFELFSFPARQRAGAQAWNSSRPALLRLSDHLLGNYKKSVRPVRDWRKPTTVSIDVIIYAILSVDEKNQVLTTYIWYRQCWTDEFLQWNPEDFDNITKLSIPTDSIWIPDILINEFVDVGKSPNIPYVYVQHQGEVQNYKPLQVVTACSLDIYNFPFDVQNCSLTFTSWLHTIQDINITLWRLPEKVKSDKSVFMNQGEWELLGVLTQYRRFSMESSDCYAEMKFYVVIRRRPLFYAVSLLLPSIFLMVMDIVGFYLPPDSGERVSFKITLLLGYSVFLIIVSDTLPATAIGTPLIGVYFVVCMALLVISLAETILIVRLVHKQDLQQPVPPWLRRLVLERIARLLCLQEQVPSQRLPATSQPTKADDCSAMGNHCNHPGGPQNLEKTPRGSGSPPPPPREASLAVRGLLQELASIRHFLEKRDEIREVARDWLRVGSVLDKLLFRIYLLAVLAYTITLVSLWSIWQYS
Procedure: The compounds of the invention are also tested for 5-HT3 antagonistic activity in the isolated right atrium of the rabbit heart based upon the method of Fozard J. R., Naunyn-Schmiedeberg's Arch. Pharmacol., 1984, 326, 36-44. The procedures relies upon the ability of 5-HT to stimulate 5-HT3 receptors present on sympathetic nerve terminals in the heart, causing release of noradrenaline which evokes an increase in the spontaneous rate of […]. The antagonist potency is expressed in a similar manner to that of the preceding test method i.e. as an apparent PKB.

## CN1[C@@H]2CC[C@H]1C[C@@H](Oc1ccccn1)C2 [Example 1, Endo 8 methyl-3-(2-pyridinyloxy)-8-azabicyclo[3.2.1]octane]
[1]
  Kb: 631 nM
[2]
  Kd: 39.8 nM
